The supplement of paper PMC10307832

Experiments:
Assay in all cases: relative viability (nuclei count vs DMSO), 5 days (fraction); higher = more cells survive
PAC-1 + Lapatinib = compound: C=CCc1cccc(/C=N/NC(=O)CN2CCN(Cc3ccccc3)CC2)c1O [PAC-1] + CS(=O)(=O)CCNCc1ccc(-c2ccc3ncnc(Nc4ccc(OCc5cccc(F)c5)c(Cl)c4)c3c2)o1 [Lapatinib] (partner 2 µM)
Summary of the method: (§1)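 Cells from lung cancer lines were seeded into 1536-well plates and, one day later, dosed by pin tool. Treatments were either a single drug or a fixed dose of an anchor drug with five library-drug doses (not always all listed) in √10 steps. After 5 days, nuclei were stained in a one-step fixation (final 0.05% Triton X-100, 1% formaldehyde, 1 ug/ml Hoechst) and counted on 4× images, and relative viability is the treated-to-vehicle nuclei ratio, as the median of duplicate plates.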

Ibrutinib + Dasatinib = compound: C=CC(=O)N1CCC[C@@H](n2nc(-c3ccc(Oc4ccccc4)cc3)c3c(N)ncnc32)C1 [Ibrutinib] + Cc1nc(Nc2ncc(C(=O)Nc3c(C)cccc3Cl)s2)cc(N2CCN(CCO)CC2)n1 [Dasatinib] (partner 0.075 µM)
Summary of the method: as §1

BMX-IN-1 + Dasatinib = compound: C=CC(=O)Nc1cc(-n2c(=O)ccc3cnc4ccc(-c5ccc(NS(C)(=O)=O)cc5)cc4c32)ccc1C [BMX-IN-1] + Cc1nc(Nc2ncc(C(=O)Nc3c(C)cccc3Cl)s2)cc(N2CCN(CCO)CC2)n1 [Dasatinib] (partner 0.075 µM)
Summary of the method: as §1

PAC-1 + Phenformin = compound: C=CCc1cccc(/C=N/NC(=O)CN2CCN(Cc3ccccc3)CC2)c1O [PAC-1] + N=C(N)NC(=N)NCCc1ccccc1 [Phenformin] (partner 250 µM)
Summary of the method: as §1

Cell Line | relative viability (PAC-1 + Lapatinib; first compound 0.02 µM) | relative viability (PAC-1 + Lapatinib; first compound 0.06325 µM) | relative viability (PAC-1 + Lapatinib; first compound 0.2 µM) | relative viability (PAC-1 + Lapatinib; first compound 2 µM) | relative viability (Ibrutinib + Dasatinib; first compound 0.005 µM) | relative viability (Ibrutinib + Dasatinib; first compound 0.01581 µM) | relative viability (Ibrutinib + Dasatinib; first compound 0.05 µM) | relative viability (Ibrutinib + Dasatinib; first compound 0.1581 µM) | relative viability (Ibrutinib + Dasatinib; first compound 0.5 µM) | relative viability (BMX-IN-1 + Dasatinib; first compound 0.02 µM) | relative viability (BMX-IN-1 + Dasatinib; first compound 0.2 µM) | relative viability (BMX-IN-1 + Dasatinib; first compound 0.6325 µM) | relative viability (BMX-IN-1 + Dasatinib; first compound 2 µM) | relative viability (PAC-1 + Phenformin; first compound 0.02 µM) | relative viability (PAC-1 + Phenformin; first compound 0.06325 µM) | relative viability (PAC-1 + Phenformin; first compound 0.2 µM) | relative viability (PAC-1 + Phenformin; first compound 2 µM)
NCI-H650 | 1.09 | 1.05 | 0.668 | 0.747 | 0.408 | 0.484 | 0.378 | 0.491 | 0.465 | 0.49 | 0.469 | 0.517 | 0.478 | 0.469 | 0.452 | 0.403 | 0.444
NCI-H661 | 0.313 | 0.541 | 0.552 | 0.445 | 0.626 | 0.581 | 0.417 | 0.842 | 0.425 | 0.993 | 0.852 | 1 | 0.946 | 0.255 | 0.299 | 0.278 | 0.29
NCI-H727 | 0.717 | 0.674 | 0.801 | 0.884 | – | 0.393 | 0.424 | – | 0.298 | 0.438 | 0.339 | 0.479 | 0.444 | 0.463 | 0.682 | 0.565 | 0.52
NCI-H838 | 0.931 | 0.968 | 0.83 | 1.01 | 0.327 | 0.286 | 0.297 | 0.251 | 0.289 | 0.28 | 0.323 | 0.347 | 0.282 | 0.509 | 0.585 | 0.46 | 0.572
NCI-H1355 | 0.97 | 0.977 | 0.929 | 1.11 | 0.527 | 0.647 | 0.718 | 0.623 | 0.677 | 0.772 | 0.777 | 0.768 | 0.785 | 0.461 | 0.517 | 0.431 | 0.438
NCI-H1395 | 1.12 | 1 | 0.881 | 1.01 | 0.419 | 0.401 | 0.383 | 0.392 | 0.417 | 0.408 | 0.579 | 0.462 | 0.391 | 0.45 | 0.429 | 0.421 | 0.426
NCI-H1437 | 0.758 | 0.828 | 0.751 | 0.679 | 0.313 | 0.39 | 0.375 | 0.217 | 0.362 | 0.512 | 0.391 | 0.429 | 0.409 | 0.302 | 0.275 | 0.264 | 0.339
NCI-H1563 | 0.967 | 0.91 | 1.07 | 1.01 | 0.431 | 0.456 | 0.507 | 0.46 | 0.415 | 0.441 | 0.463 | 0.423 | 0.428 | 0.655 | 0.679 | 0.663 | 0.66
NCI-H1650 | 0.749 | 0.875 | 0.675 | 0.668 | 0.304 | 0.281 | 0.321 | 0.369 | 0.346 | 0.299 | 0.307 | 0.423 | 0.294 | 0.427 | 0.478 | 0.411 | 0.42
NCI-H1651 | 0.757 | 0.8 | 0.725 | 0.855 | 0.446 | 0.386 | 0.368 | 0.352 | 0.428 | 0.213 | 0.515 | 0.435 | 0.406 | 0.364 | 0.341 | 0.29 | 0.333
NCI-H1666 | 0.613 | 0.608 | 0.911 | 0.663 | 0.841 | 0.807 | 0.803 | 0.896 | 0.706 | 0.905 | 0.839 | 0.94 | 0.845 | 0.589 | 0.559 | 0.695 | 0.549
NCI-H1734 | 1.12 | 0.987 | 1.04 | 1.01 | 0.36 | 0.473 | 0.506 | 0.521 | 0.454 | 0.463 | 0.504 | 0.476 | 0.467 | 0.366 | 0.36 | 0.373 | 0.388
NCI-H1755 | 0.987 | 1.03 | 1.02 | 1.05 | 0.478 | 0.365 | 0.444 | 0.484 | 0.383 | 0.389 | 0.452 | 0.438 | 0.48 | 0.615 | 0.614 | 0.595 | 0.606
NCI-H1792 | 0.978 | 0.91 | 0.923 | 0.934 | – | 0.759 | 0.755 | – | 0.685 | – | 0.817 | 0.714 | 0.862 | 0.298 | 0.257 | 0.293 | 0.24
NCI-H1793 | 0.48 | 0.753 | 0.62 | 0.652 | – | 0.371 | 0.358 | 0.389 | 0.303 | 0.417 | 0.432 | 0.479 | 0.451 | 0.327 | 0.376 | 0.355 | 0.353
NCI-H1915 | 0.971 | 0.995 | 0.917 | 0.92 | 0.287 | 0.292 | 0.288 | 0.319 | 0.369 | 0.351 | 0.338 | 0.411 | 0.302 | 0.364 | 0.358 | 0.345 | 0.365
NCI-H1944 | 0.754 | 0.798 | 0.768 | 0.867 | 0.21 | 0.18 | 0.206 | 0.178 | 0.193 | 0.203 | 0.188 | 0.222 | 0.206 | 0.198 | 0.198 | 0.19 | 0.189
NCI-H1975 | 0.866 | 0.871 | 0.939 | 0.97 | 0.349 | 0.293 | 0.263 | 0.345 | 0.134 | 0.362 | 0.382 | 0.457 | 0.38 | 0.404 | 0.389 | 0.401 | 0.447
